Results as given in publication PMC8776995 (Frontiers in Chemistry, 2022).
“And” between values parts separate entries of the source, which are not always exact repeats. Equal entries are not always repeated.

Tests used:
[1] = tested on: EGFR phosphorylation (Tyr1068) in PC-9 cells; experiment: Western blot, p-EGFR/EGFR in PC-9; conditions: for p-EGFR/EGFR: band density ratio; for p-EGFR/EGFR relative to DMSO: ratio normalised to DMSO = 1
Procedure: We also performed western blot analysis to evaluate the impact of e4 and e12 on EGFR signaling in PC-9 and H460 cells.
H460 cells were seeded in six-well plates with serum-free medium overnight, and then treated complete medium containing 0.1% DMSO, various concentrations (0.1, 1 and 10 μM) of either compound e4 or e12 for 2 h, respectively. […] Then the H460 cells were treated with complete medium containing EGF (10 ng/ml) for 5 min. Then the cells were harvested and washed with PBS, centrifuged, resuspended in 100–200 μl of RIPA lysis buffer containing Protease and Phosphatase Inhibitor Cocktail (1X), and then centrifuged for 5 min at 12,000 rpm at 4°C. The supernatant was used for protein analysis. […] Then the membrane was washed 5 min (X3) and incubated at 1:3,000 dilution of anti-rabbit secondary antibodies or 1:1,000 dilution of anti-mouse secondary antibodies for 1 h at RT. After washing with TBST 5 min (X3), protein bands were developed by chemiluminescence. The protein levels were quantified by the gray values of the bands in the resulting images by ImageJ, and the control group was used as the standard. […] The PC-9 cells were harvested and analyzed as above.

PC-9 cells [2] = experiment: Hoechst 33342 staining for cell apoptosis; assay type: cell-based, human; conditions: PC-9, various concentrations, 48 h, vs 0.1% DMSO
Procedure: To further verify the impact of compounds e4 and e12 on apoptosis of NSCLC cells, PC-9 cells were treated with either compound e4 or e12 at various concentrations for 48 h and then stained with dye Hoechst 33342.
PC-9 cells were seeded in 96-well plates, then treated with 0.1% DMSO (as control) or various concentrations of compound e4 or e12 for 48 h. Culture medium from the cells was removed and replaced with medium containing dye Hoechst 33342. Cells were incubated at 37°C for 5–15 min, washed with PBS twice, and then observed and imaged under the Nikon Ti-U microscope.

H1975 cells = experiment: CCK-8 antiproliferation assay, H1975; conditions: given as fraction, Repeat 1-3; for Inhibitory efficacy: H1975 cells
H460 cells [3] = experiment: Flow cytometry detection for cell cycle, H460; assay type: cell-based, human; conditions: for G0/G1 / G2/M / S: single experiments (20200711, 20200810, 20200812)
Procedure: (§1) To investigate the effects of compounds e4 and e12 on various phases of the cell cycle, PC-9 cells were treated with compound e4 or e12 of various concentrations for 24 h, and H460 cells were treated with compound e4 or e12 of various concentrations for 12 h.
(§2) PC-9 or H460 (2 × 10^5–3 × 10^5/well) cells were seeded in six-well plates for 24 h, and then treated with 0.1% DMSO (as control), various concentrations of either compound e4 or e12 for 24 h (PC-9) or 12 h (H460), respectively. The treated cells were harvested, washed with PBS, and then stained using the cell-cycle staining kit according to the manufacturer’s manual. The distribution of cell-cycle phases with different DNA contents was determined by flow cytometry (BD LSRFortessa™ Flow Cytometer) and analyzed using ModFit LT software.

H460 cells [4] = experiment: Annexin V/PI flow cytometry for cell apoptosis, H460; assay type: cell-based, human; conditions: for Percentage of apoptosis, Average: average of three runs; for Q2+Q3 / Lymphocytes/Q2: FITC-A+ , PI-A+ Freq. of Parent / Lymphocytes/Q3: FITC-A+ , PI-A- Freq. of Parent / Percentage of apoptosis: single runs; for Q2+Q3: given as fraction; for Lymphocytes/Q2: FITC-A+ , PI-A+ Freq. of Parent / Lymphocytes/Q3: FITC-A+ , PI-A- Freq. of Parent / Percentage of apoptosis: time as in file name (24h, 48h or not given)
Procedure: (§3) To establish whether the antiproliferative efficacy is associated with apoptosis, PC-9 and H460 cells were treated with compound e4 or e12 of various concentrations (4, 8 and 12 μM) for 48 h, and then assessed with flow cytometry.
(§4) Cell-apoptosis analysis was carried out by flow cytometry using the Annexin V/PI apoptosis kit according to the manufacturer’s manual. Briefly, PC-9 or H460 (3 × 10^4–5 × 10^4/well) cells were seeded in 12-well plates for 24 h, and then treated with 0.1% DMSO (as control) or various concentrations of compound e4 or e12 for 48 h, respectively. Cells were harvested, washed with PBS, and then incubated with 100ul of 1X Annexin V binding buffer containing 1 μl PI and 1 μl FITC Annexin V for 15 min at RT in the dark. 200 µl of 1X binding buffer were added to each tube for flow cytometry analysis (BD LSRFortessa™ Flow Cytometer). The percentages of apoptotic cells were analyzed using FlowJo soft.

PC-9 cells [5] = experiment: Flow cytometry detection for cell cycle, PC-9; assay type: cell-based, human; conditions: for G0/G1 / G2/M / S: single repeats (Repeat 1-3)
Procedure: as §1, §2

wild-type EGFR = wild-type EGFR (Homo sapiens, UniProt P00533); experiment: EGFR kinase assay (ELISA); conditions: for A450: raw ELISA absorbance
Procedure: The kinase enzyme of EGFR was purchased from Carna Bioscience (Kobe, Japan). A total of 10 ng/ml anti phosphotyrosine (PY713) antibody (abcam, Cambridge Science Park, United Kingdom) was precoated in 96-well ELISA plates. […] Then, a total of 3 μmol/L ATP was added and the reaction was continued for 2 h. […] After incubation, the wells were washed with PBS and then incubated with horseradish peroxidase (HRP)-conjugated streptavidin. The wells were visualized using 3,3′,5,5′-tetramethylbenzidine (TMB), and chromogenic reaction was ended with 2 mol/L H2SO4, the absorbance was read with a multimode plate reader (PerkinElmer, United States) at 450 nm.

PC-9 cells [6] = experiment: Annexin V/PI flow cytometry for cell apoptosis, PC-9; assay type: cell-based, human; parameters: key to Apoptosis (sum of Q2 and Q3) / Apoptosis, Average: % apoptotic cells (Annexin V/PI flow cytometry); conditions: for Apoptosis, Average / Lymphocytes/Q2: FITC-A+ , PI-A+ Freq. of Parent / Lymphocytes/Q3: FITC-A+ , PI-A- Freq. of Parent / Apoptosis (sum of Q2 and Q3): PC-9, 48h; for Apoptosis, Average: average of three repeats; for Lymphocytes/Q2: FITC-A+ , PI-A+ Freq. of Parent / Lymphocytes/Q3: FITC-A+ , PI-A- Freq. of Parent: single runs; for Apoptosis (sum of Q2 and Q3): single repeats (Repeat 1-3)
Procedure: as §3, §4

wild-type EGFR, sequence (P00533 25-1210): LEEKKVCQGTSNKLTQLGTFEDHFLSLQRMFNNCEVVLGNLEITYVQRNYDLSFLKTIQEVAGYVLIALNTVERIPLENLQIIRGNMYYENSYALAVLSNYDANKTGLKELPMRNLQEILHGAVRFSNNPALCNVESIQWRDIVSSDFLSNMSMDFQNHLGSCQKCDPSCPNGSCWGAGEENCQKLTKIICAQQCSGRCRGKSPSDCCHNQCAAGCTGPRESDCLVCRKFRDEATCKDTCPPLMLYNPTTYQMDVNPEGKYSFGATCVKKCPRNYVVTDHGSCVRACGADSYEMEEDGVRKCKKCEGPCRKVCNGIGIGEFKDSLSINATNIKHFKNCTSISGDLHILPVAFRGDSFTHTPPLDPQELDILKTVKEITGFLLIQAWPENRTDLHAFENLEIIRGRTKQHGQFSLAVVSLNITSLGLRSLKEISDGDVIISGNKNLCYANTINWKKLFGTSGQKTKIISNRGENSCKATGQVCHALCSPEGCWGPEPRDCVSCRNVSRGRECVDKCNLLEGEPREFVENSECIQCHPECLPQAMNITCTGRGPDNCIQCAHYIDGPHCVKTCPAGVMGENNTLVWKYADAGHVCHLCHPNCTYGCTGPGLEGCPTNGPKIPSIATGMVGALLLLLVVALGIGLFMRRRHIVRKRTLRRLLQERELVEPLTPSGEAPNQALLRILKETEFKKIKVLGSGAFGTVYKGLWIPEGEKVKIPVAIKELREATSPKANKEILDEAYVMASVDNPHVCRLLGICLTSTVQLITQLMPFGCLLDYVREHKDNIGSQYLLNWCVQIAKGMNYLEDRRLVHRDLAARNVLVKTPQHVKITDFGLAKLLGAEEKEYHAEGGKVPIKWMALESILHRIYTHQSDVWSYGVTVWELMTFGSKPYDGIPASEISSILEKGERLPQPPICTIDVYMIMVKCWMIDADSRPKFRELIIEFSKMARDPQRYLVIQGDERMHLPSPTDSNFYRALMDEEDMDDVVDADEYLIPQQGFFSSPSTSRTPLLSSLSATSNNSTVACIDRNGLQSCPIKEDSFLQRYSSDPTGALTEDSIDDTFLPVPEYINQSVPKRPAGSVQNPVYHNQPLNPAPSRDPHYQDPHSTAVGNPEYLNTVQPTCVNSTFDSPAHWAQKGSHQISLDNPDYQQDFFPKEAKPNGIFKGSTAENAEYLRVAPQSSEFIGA

inhibition at 100 fM (wild-type EGFR; concentration 0.0001 nM (reference for normalisation), one value per replicate column): 0%
Inhibition (wild-type EGFR; concentration 0.03 nM, one value per replicate column, 3e-05 µM): 0.3205 and 0.9868
inhibition at 0.0003 µM (wild-type EGFR; concentration 0.3 nM, one value per replicate column): 8.65%
Inhibition (wild-type EGFR; concentration 0.3 nM, one value per replicate column, 0.0003 µM): 6.25
inhibition at 0.003 µM (wild-type EGFR; concentration 3 nM, one value per replicate column): 8.97%
Inhibition (wild-type EGFR; concentration 3 nM, one value per replicate column, 0.003 µM): 8.553
inhibition at 0.03 µM (wild-type EGFR; concentration 30 nM, one value per replicate column): 9.62%
Inhibition (wild-type EGFR; concentration 30 nM, one value per replicate column, 0.03 µM): 10.8553
inhibition at 0.3 µM (wild-type EGFR; concentration 300 nM, one value per replicate column): 10.3%
Inhibition (wild-type EGFR; concentration 300 nM, one value per replicate column, 0.3 µM): 11.1842
inhibition at 3 µM (wild-type EGFR; concentration 3000 nM, one value per replicate column): 13.8%
Inhibition (wild-type EGFR; concentration 3000 nM, one value per replicate column, 3 µM): 18.75
inhibition at 30 µM (wild-type EGFR; concentration 30000 nM, one value per replicate column): 70.2%
Inhibition (wild-type EGFR; concentration 30000 nM, one value per replicate column, 30 µM): 70.7237
A450 (wild-type EGFR; concentration 0.0001 nM): 0.554 and 0.551
A450 (wild-type EGFR; concentration 0.03 nM): 0.553 and 0.548
A450 (wild-type EGFR; concentration 0.3 nM): 0.527 and 0.532
A450 (wild-type EGFR; concentration 3 nM): 0.526 and 0.525
A450 (wild-type EGFR; concentration 30 nM): 0.524 and 0.518
A450 (wild-type EGFR; concentration 300 nM): 0.522 and 0.517
A450 (wild-type EGFR; concentration 3000 nM): 0.511 and 0.494
A450 (wild-type EGFR; concentration 30000 nM): 0.335 and 0.336
IC50 (wild-type EGFR; read-out: IC50 (μM) EGFR, ELISA, 3 μmol/L ATP): 13 µM
SMILES: COCCOc1cc2ncnc(Nc3cccc(-c4cn(Cc5cc(Br)cc(Br)c5)nn4)c3)c2cc1OCCOC [e4, [6,7-Bis-(2-methoxy-ethoxy)-quinazolin-4-yl]-{3-[1-(3,5-dibromo-benzyl)-1H-[1,2,3]triazol-4-yl]-phenyl}-amine]
p-EGFR/EGFR ([1]; PC-9, 0.1 uM): 0.3318
p-EGFR/EGFR relative to DMSO ([1]; PC-9, 0.1 uM): 0.2965
p-EGFR/EGFR ([1]; PC-9, 1 uM): 0.2248
p-EGFR/EGFR relative to DMSO ([1]; PC-9, 1 uM): 0.2009
p-EGFR/EGFR ([1]; PC-9, 10 uM): 0.5115
p-EGFR/EGFR relative to DMSO ([1]; PC-9, 10 uM): 0.4571
phosphorylation of EGFR (western blot) ([1]; PC-9, especially at 10 μM): suppressed
apoptotic morphology, Hoechst 33342 staining (PC-9 cells [2]): exhibited features typical of apoptosis
Inhibitory efficacy (H1975 cells; 2uM): 0.363 and 0.4168
Inhibitory efficacy (H1975 cells; 4uM): 0.3676 and 0.4565
Inhibitory efficacy (H1975 cells; 8uM): 0.9443
Inhibitory efficacy (H1975 cells; 16uM): 0.9548 and 0.9653
inhibition at 2 µM (H1975 cells; Homo sapiens, NCI-H1975, read-out: Inhibitory efficacy, H1975 cells, 2uM): 30.2%
inhibition at 4 µM (H1975 cells; Homo sapiens, NCI-H1975, read-out: Inhibitory efficacy, H1975 cells, 4uM): 39.3%
inhibition at 8 µM (H1975 cells; Homo sapiens, NCI-H1975, read-out: Inhibitory efficacy, H1975 cells, 8uM): 92.2%
inhibition at 16 µM (H1975 cells; Homo sapiens, NCI-H1975, read-out: Inhibitory efficacy, H1975 cells, 16uM): 96.1%
G0/G1 (H460 cells [3]; H460, 4uM): 42.32% and 41.29% and 53.43%
G2/M (H460 cells [3]; H460, 4uM): 16.95% and 17.5% and 12.27%
S (H460 cells [3]; H460, 4uM): 40.73% and 41.21% and 34.3%
G0/G1 (H460 cells [3]; H460, 8uM): 48.11% and 44.75% and 59.66%
G2/M (H460 cells [3]; H460, 8uM): 16.79% and 18.81% and 11.77%
S (H460 cells [3]; H460, 8uM): 35.11% and 36.45% and 28.56%
G0/G1 (H460 cells [3]; H460, 12uM): 48.29% and 43.3% and 54.65%
G2/M (H460 cells [3]; H460, 12uM): 17.85% and 18.86% and 13.72%
S (H460 cells [3]; H460, 12uM): 33.86% and 38.02% and 31.63%
percentage of cells in the G0/G1 phase (H460 cells [3]; H460, various concentrations, 12 h): induced higher percentages
Percentage of apoptosis, Average (H460 cells [4]; H460, 4uM): 9.783%
Q2+Q3 (H460 cells [4]; H460, 4uM): 0.1032 and 0.0852 and 0.1051
Lymphocytes/Q2: FITC-A+ , PI-A+ Freq. of Parent (H460 cells [4]; H460, 4uM): 5.85% and 4.70% and 6.80%
Lymphocytes/Q3: FITC-A+ , PI-A- Freq. of Parent (H460 cells [4]; H460, 4uM): 4.47% and 3.82% and 3.71%
Percentage of apoptosis (H460 cells [4]; H460, 4uM): 10.32% and 8.52% and 10.51%
Percentage of apoptosis, Average (H460 cells [4]; H460, 8uM): 47.9767%
Q2+Q3 (H460 cells [4]; H460, 8uM): 0.4733 and 0.459 and 0.507
Lymphocytes/Q2: FITC-A+ , PI-A+ Freq. of Parent (H460 cells [4]; H460, 8uM): 41.3% and 35.4% and 44.0%
Lymphocytes/Q3: FITC-A+ , PI-A- Freq. of Parent (H460 cells [4]; H460, 8uM): 6.03% and 10.5% and 6.70%
Percentage of apoptosis (H460 cells [4]; H460, 8uM): 47.33% and 45.9% and 50.7%
Percentage of apoptosis, Average (H460 cells [4]; H460, 12uM): 72.3733%
Q2+Q3 (H460 cells [4]; H460, 12uM): 0.7923 and 0.7087 and 0.6702
Lymphocytes/Q2: FITC-A+ , PI-A+ Freq. of Parent (H460 cells [4]; H460, 12uM): 74.3% and 67.3% and 60.8%
Lymphocytes/Q3: FITC-A+ , PI-A- Freq. of Parent (H460 cells [4]; H460, 12uM): 4.93% and 3.57% and 6.22%
Percentage of apoptosis (H460 cells [4]; H460, 12uM): 79.23% and 70.87% and 67.02%
cell apoptosis (flow cytometry) (H460 cells [4]; H460, 4, 8 and 12 μM, 48 h): significant cell apoptosis
G0/G1 (PC-9 cells [5]; PC-9, 4uM): 48.12 and 48.79 and 52.62
G2/M (PC-9 cells [5]; PC-9, 4uM): 15.27 and 15.42 and 15.56
S (PC-9 cells [5]; PC-9, 4uM): 36.61 and 35.79 and 31.83
G0/G1 (PC-9 cells [5]; PC-9, 8uM): 53.18 and 53.63 and 55.05
G2/M (PC-9 cells [5]; PC-9, 8uM): 16.92 and 17.15 and 16.88
S (PC-9 cells [5]; PC-9, 8uM): 29.9 and 29.22 and 28.08
G0/G1 (PC-9 cells [5]; PC-9, 12uM): 60.53 and 62.02 and 63.46
G2/M (PC-9 cells [5]; PC-9, 12uM): 23.33 and 22.27 and 17.86
S (PC-9 cells [5]; PC-9, 12uM): 16.14 and 15.71 and 18.68
percentage of cells in the G0/G1 phase (PC-9 cells [5]; PC-9, various concentrations, 24 h): induced higher percentages
cell apoptosis (flow cytometry) (PC-9 cells [6]; PC-9, 4, 8 and 12 μM, 48 h): significant cell apoptosis
Apoptosis, Average (PC-9 cells [6]; 4uM): 10.24
Lymphocytes/Q2: FITC-A+ , PI-A+ Freq. of Parent (PC-9 cells [6]; 4uM): 4.32% and 13.0% and 11.9%
Lymphocytes/Q3: FITC-A+ , PI-A- Freq. of Parent (PC-9 cells [6]; 4uM): 0.25% and 0.69% and 0.56%
Apoptosis, Average (PC-9 cells [6]; 8uM): 14.45
Apoptosis (sum of Q2 and Q3) (PC-9 cells [6]; 8uM): 10.39 and 18.02 and 14.93
Lymphocytes/Q2: FITC-A+ , PI-A+ Freq. of Parent (PC-9 cells [6]; 8uM): 9.22% and 16.0% and 13.2%
Lymphocytes/Q3: FITC-A+ , PI-A- Freq. of Parent (PC-9 cells [6]; 8uM): 1.17% and 2.02% and 1.73%
Apoptosis, Average (PC-9 cells [6]; 12uM): 35.74
Apoptosis (sum of Q2 and Q3) (PC-9 cells [6]; 12uM): 33.11 and 39.69 and 34.42
Lymphocytes/Q2: FITC-A+ , PI-A+ Freq. of Parent (PC-9 cells [6]; 12uM): 28.20% and 34.7% and 29.1%
Lymphocytes/Q3: FITC-A+ , PI-A- Freq. of Parent (PC-9 cells [6]; 12uM): 4.91% and 4.99% and 5.32%
